Holding throughout (type): in vivo
The test system of assay [1] is Triticum aestivum (TRZAW, winter wheat). The assay is described as follows: Test 1B glasshouse assay for herbicidal activity, post-emergence. The note with it: 360 h; for plant injury at 30 g/ha: 30 g/ha application rate. The procedure:
(§1) Seeds of a variety of monocotyledonous and dicotyledonous test plants are sown in standard soil in pots. The plants are cultivated for one day (for pre-emergence) or for about 12 days (range=10-13 days) (for post-emergence) under controlled conditions in a glasshouse (warm climate species at 24/18° C., cool climate species at 20/16° C., both at day/night; 16 hours light; 65% humidity).
(§2) An “instant formulation”, known as the “IF50”, containing 50 g/liter (i.e. 5% w/v) of the “technical” (i.e. unformulated) active ingredient is prepared by dissolving the active ingredient in a mixture of organic solvents and emulsifier, details of which are provided in the Table below. This IF50 is then mixed with a small, variable amount of acetone to aid dissolution, before addition of a 0.2% v/v aqueous solution of the adjuvant X-77 (which is a mixture of alkyl aryl polyoxyethylene glycols and free fatty acids in isopropanol, CAS Registry number 11097-66-8), as the aqueous diluent, to form an aqueous spray solution which contains a predetermined concentration of the active ingredient (which varies depending on the application rate of the active ingredient to the plants) and 0.2% v/v of the adjuvant X-77. This aqueous spray solution is then sprayed onto the plants, after one day's cultivation (for pre-emergence) or after about 12 days' cultivation (for post-emergence).
(§3) The test plants are then grown on, in a glasshouse (greenhouse) under controlled conditions (at either 24/18° C. or 20/16° C. (day/night) as mentioned above; 16 hours light; 65% humidity) and are watered twice daily. Either 15 days after application of the herbicide (15 DAA) (for post-emergence), or 20 days after application of the herbicide (20 DAA) (for pre-emergence), the test plants are evaluated visually, and an assessed percentage phytotoxicity score is given for each herbicidal application on each plant species (where 100%=total damage to plant; 0%=no damage to plant).
(§4) Cool climate crop plants: Triticum aestivum (TRZAW, winter wheat), Brassica napus (BRSNN, rape, also called oilseed rape or rapeseed), Beta vulgaris (BEAVA, sugar beet).

In assay [2] the test system is Beta vulgaris (BEAVA, sugar beet). The description is as above. The note with it: 360 h; for plant injury at 30 g/ha: 30 g/ha application rate. The procedure:
as §1, §2, §3, §4

The subject of assay [3] is Brassica napus (BRSNN, rape). The assay is described as above. The note with it: 360 h; for plant injury at 30 g/ha: 30 g/ha application rate. The procedure: as §1, §2, §3, §4
In assay [4] the test system is Echinochloa crus-galli (ECHCG). The assay is described as follows: Test 1A glasshouse assay for herbicidal activity, pre-emergence. The settings on record: 312 h, 250 g/ha, evaluated after 13 days, read-out: percentage phytotoxicity ECHCG. Summed up:
(§5)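 Visual % phytotoxicity (0 = no damage, 100 = total damage) scored 13 d after spraying. Pots sown in standard soil; spray applied 1 d post-sowing for pre-emergence, 8 d for post-emergence. Vehicle acetone/water 50:50 + 0.5% Tween 20; glasshouse 24/16 °C, 14 h light, 65% RH, watered twice daily.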

Assay [5] relates to Alopecurus myosuroides (ALOMY). Described as above. The settings on record: 312 h, 250 g/ha, evaluated after 13 days, read-out: percentage phytotoxicity ALOMY. Summed up: as §5
Assay [6] relates to Amaranthus retroflexus (AMARE). The description is as above. The note with it: 312 h, 250 g/ha, evaluated after 13 days, read-out: percentage phytotoxicity AMARE. Summed up: as §5
For assay [7], the system named is Setaria faberi (SETFA). Described as above. The settings on record: 312 h, 250 g/ha, evaluated after 13 days, read-out: percentage phytotoxicity SETFA. Summed up:
as §5

For assay [8], the system named is Glycine max (GLXMA, soybean). The assay is described as follows: Test 1B glasshouse assay for herbicidal activity, pre-emergence. The settings on record: 480 h, 20 DAA, read-out: percentage phytotoxicity GLXMA. The procedure: as §1, §2, §3
(§6) Warm climate crop plants: Glycine max (GLXMA, soybean).

Assay [9] relates to Glycine max (GLXMA, soybean). The assay is described as follows: Test 1B glasshouse assay for herbicidal activity, post-emergence. The settings on record: 360 h; for plant injury at 30 g/ha: 30 g/ha application rate. The procedure: as §1, §2, §3, §6
Another assay deals with Avena fatua (AVEFA). Described as above. The settings on record: 360 h; for pest or weed control at 30 g/ha: 30 g/ha application rate. The procedure: as §1, §2, §3
(§7) Cool climate (“cool season”) grassy monocotyledonous weeds: Alopecurus myosuroides (ALOMY), Avena fatua (AVEFA), Lolium perenne (LOLPE).

The subject of another assay is Lolium perenne (LOLPE). Described as above. The note with it: 360 h; for pest or weed control at 30 g/ha: 30 g/ha application rate. The procedure: as §1, §2, §3, §7
Assay [10] relates to Alopecurus myosuroides (ALOMY). The assay is described as above. The settings on record: 360 h; for pest or weed control at 30 g/ha: 30 g/ha application rate. The procedure:
as §1, §2, §3, §7

In assay [11] the test system is Brachiaria plantaginea (BRAPL). The assay is described as above. The note with it: Urochloa plantaginea; for pest or weed control at 30 g/ha: 30 g/ha application rate. The method in brief: (§8)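 Warm-climate glasshouse, 24/18° C., 16 h light, 65% humidity. Spray: IF50 (50 g/liter stock) in 0.2% v/v X-77; pre-emergence 1 day post-sowing, post-emergence ~12 days (10-13). Visual phytotoxicity 0-100%, at 15 DAA post, 20 DAA pre.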

The subject of assay [12] is Digitaria sanguinalis (DIGSA). Put plainly: Test 1B glasshouse assay for herbicidal activity, pre-emergence. The note with it: 480 h, 20 DAA, read-out: percentage phytotoxicity DIGSA. Summed up:
as §8

Assay [13] concerns SORVU (Sorghum bicolor (L.) Moench ssp. Bicolor, or Sorghum vulgare Pers.). Described as above. The note with it: 480 h, 20 DAA, read-out: percentage phytotoxicity SORVU. Summed up: as §8
Assay [14] deals with Setaria faberi (SETFA). The assay is described as above. The note with it: 480 h, 20 DAA, read-out: percentage phytotoxicity SETFA. Summed up: as §8
The test system of assay [15] is Abutilon theophasti Medik. (ABUTH). Put plainly: Test 1A glasshouse assay for herbicidal activity, post-emergence. The settings on record: 312 h, evaluated after 13 days, read-out: percentage phytotoxicity ABUTH. Summed up:
as §5

The structures appear in SMILES notation.

With `Cc1cc(C#CCl)cc(C)c1C1C(=O)C2CCC(C2)C1=O` (stereo not shown) [Compound A-6], the plant injury at 60 g/ha in assay [1] (60 g/ha application rate) stood at 40%; in assay [2] (60 g/ha application rate) it was 50%; in [3] (60 g/ha application rate), 60%; in [9] (60 g/ha application rate) it was 0%. Besides, the plant injury at 30 g/ha is 40% in assay [2], 40% in assay [3] and 0% in [9]. Further, the pest or weed control at 250 g/ha in assay [4] is 100%; in [5], 100%; in assay [6] it was 30%; in the assay on Setaria faberi (SETFA) [7] it was 100%. Besides, the plant injury at 125 g/ha in assay [8] was 0%. Besides, the pest or weed control at 30 g/ha is 50% in the assay on Avena fatua (AVEFA), 40% in the assay with Lolium perenne (LOLPE), 50% in [10] and 90% in assay [11]. For the same molecule, the pest or weed control at 60 g/ha with Avena fatua (AVEFA) (60 g/ha application rate) is 60%; in the assay with Lolium perenne (LOLPE) (60 g/ha application rate), 70%; in assay [10] (60 g/ha application rate) it was 50%; in assay [11] (60 g/ha application rate) it was 100%. Also, the pest or weed control at 125 g/ha in assay [12] amounted to 100%; in [13], 80%; in the assay on Setaria faberi (SETFA) [14], 80%.

With `CC#Cc1cc(Cl)c(C2C(=O)C3CCC(C)(C2=O)C3(C)C)c(OC)c1` (stereo not shown) [Compound A-17], the plant injury at 250 g/ha in assay [1] (250 g/ha application rate), in assay [2] (250 g/ha application rate), in assay [3] (250 g/ha application rate), in [8] and in assay [9] (250 g/ha application rate) was 10% each time. Further, the pest or weed control at 250 g/ha amounted to 10% in [15]; 100% in assay [4]; 90% in assay [5]; 60% in [6]; 90% with Setaria faberi (SETFA) [7]; 0% in the assay on Avena fatua (AVEFA) (250 g/ha application rate). In addition, the pest or weed control at 250 g/ha worked out at 20% in the assay with Lolium perenne (LOLPE) (250 g/ha application rate); 50% in assay [10] (250 g/ha application rate); 100% in assay [12]; 50% in [13]; 50% with Setaria faberi (SETFA) [14].

Consider `CC#Cc1cc(C)c(C2C(=O)CC(CC3CCOCC3)CC2=O)c(C)c1` (stereo not shown) [Compound A-9], for which the plant injury at 30 g/ha was found to be 60% in assay [1], 0% in assay [2], 50% in assay [3] and 60% in assay [9]. Further, the pest or weed control at 250 g/ha (in [4]; in assay [5]; in [6]; in the assay with Setaria faberi (SETFA) [7]) was 100% each time. For the same molecule, the plant injury at 125 g/ha in assay [8] amounted to 10%. The pest or weed control at 30 g/ha with Avena fatua (AVEFA) came to 70%; in the assay with Lolium perenne (LOLPE), 60%; in assay [10], 80%. In addition, the pest or weed control at 125 g/ha in assay [12] turned out to be 100%; in [13], 90%; in the assay on Setaria faberi (SETFA) [14], 100%.

Consider `CC#Cc1cc(Cl)c(C2C(=O)C3CCC(C3)C2=O)c(OCC)c1` (stereo not shown) [Compound A-16], for which the plant injury at 30 g/ha in [1] was determined as 10%; in assay [2], 0%; in assay [3] it was 10%; in assay [9], 0%. Moreover, the plant injury at 125 g/ha is 60% in assay [1] (125 g/ha application rate), 0% in [2] (125 g/ha application rate), 50% in assay [3] (125 g/ha application rate) and 30% in assay [9] (125 g/ha application rate). Besides, the pest or weed control at 30 g/ha in assay [15] worked out at 60%; in the assay with Avena fatua (AVEFA) it was 0%; in the assay on Lolium perenne (LOLPE) it was 20%; in [10] it was 20%. For the same molecule, the pest or weed control at 250 g/ha in [15] is 60%; in assay [4], 100%; in [5] it was 100%; in assay [6], 80%; with Setaria faberi (SETFA) [7], 100%; in assay [12] it was 100%. Besides, the pest or weed control at 250 g/ha in assay [13] was 80%; in the assay on Setaria faberi (SETFA) [14], 90%. For the same molecule, in assay [8], the plant injury at 250 g/ha was 20%. In addition, the results for the pest or weed control at 125 g/ha (in the assay with Avena fatua (AVEFA) (125 g/ha application rate); in the assay with Lolium perenne (LOLPE) (125 g/ha application rate); in [10] (125 g/ha application rate)) were 60%, 70% and 80%, respectively.

For the molecule `CC#Cc1cc(Cl)c(C2C(=O)CC3(CCOCC3)CC2=O)c(OC)c1` [Compound A-20, 9-(2-Chloro-6-methoxy-4-prop-1-ynyl-phenyl)-3-oxa-spiro[5.5]undecane-8,10-dione], the pest or weed control at 8 g/ha in [15] (8 g/ha) was found to be 50%. In addition, the pest or weed control at 30 g/ha in assay [15] was determined as 80%. The pest or weed control at 250 g/ha was found to be 80% in assay [15]; 100% in assay [4]; 100% in assay [5]; 90% in [6]; 100% with Setaria faberi (SETFA) [7].

Consider `Cc1cc(C#CCl)cc(C)c1C1C(=O)CC(CC2CCOCC2)CC1=O` (stereo not shown) [Compound A-8], for which the plant injury at 30 g/ha in assay [1] was 50%; in [2], 30%; in [3] it was 70%; in assay [9], 50%. For the same molecule, the pest or weed control at 250 g/ha in assay [4] was determined as 100%; in assay [5], 90%; in assay [6], 90%; in the assay on Setaria faberi (SETFA) [7], 90%. Further, the pest or weed control at 30 g/ha with Avena fatua (AVEFA) turned out to be 70%; in the assay on Lolium perenne (LOLPE) it was 40%; in [10], 80%; in assay [11], 90%.

Take `CC#Cc1cc(C)c(C2C(=O)CC(CCSC)CC2=O)c(C)c1` (stereo not shown) [Compound A-21, 2-(2,6-Dimethyl-4-prop-1-ynyl-phenyl)-5-(2-methylsulfanyl-ethyl)cyclohexane-1,3-dione]: in assay [15], the pest or weed control at 30 g/ha was found to be 10%. Further, the pest or weed control at 250 g/ha was determined as 60% in assay [15]; 100% in [4]; 100% in assay [5]; 90% in assay [6]; 100% in the assay on Setaria faberi (SETFA) [7].

Source of the values: patent US9615577B2, “Herbicidally active cyclic dione compounds, or derivatives therefor, substituted by a phenyl which has an alkynyl-containing substituent” (Syngenta Limited, priority 2012, dated 2017).
